Test results published in patent publication US20250197374A1, “WEE1 DEGRADING COMPOUNDS AND USES THEREOF” (BRISTOL-MYERS SQUIBB COMPANY, priority 2023, published 2025).

Target: T1, WEE1 (Homo sapiens, UniProt P30291+Q96SW2)
T1 construct: C-terminal ePL-tagged (DiscoverX, Fremont, CA) full-length WEE1 expression construct; expressed in transfected cells; host or cells: LentiX-HEK293T (Invitrogen), lentivirally transduced; the cells also over-express GSPT1-GN
Assay: WEE1-ePL degradation assay (293T-LentiX, InCELL Hunter luminescence, 4 hr)
Assay type: cell-based
Conditions: for 293T-LentiX WEE1-ePL Degradation 4 hr YMin (%): lower limit of fit, % of DMSO control signal remaining; for DC50: LentiX-HEK293T cells expressing WEE1-ePL, 4 hr incubation, read-out: 293T-LentiX WEE1-ePL Degradation 4 hr EC50
Source text: To generate LentiX-WEE1-ePL-GSPT1-ND cells for the WEE1 degradation assay, LentiX-HEK293T (Invitrogen) were tranduced by lentivirus with a C-terminal ePL-tagged (DiscoverX, Fremont, CA) full-length WEE1 expression construct. A separate lentiviral construct was introduced to over-express a mutated form of GSPT1 (NP_002085), termed GSPT1-GN, which contains a G575N mutation and is further truncated in the first 158 amino acids. GSPT1-GN is functional but not degradable by Cereblon. Cells were selected and maintained in complete DMEM media (DMEM, 10% Heat Inactivated FBS, 400 μg/mL Geneticin, and 1 μg/mL puromycin at 37 C and 5% CO2). Cells were passaged every 3-4 days by reseeding 1×10^6 cells in a T150 flask.
Cells were dispensed into 384-well white plates (Corning #3570, NY) that were pre-spotted with compounds using an acoustic dispenser (Echo acoustic transfer system, Beckman Coulter Life Sciences, Carlsbad, CA) as a 10-point dose-response curve with a 3-fold dilution starting at either 1 uM or 10 uM and including a DMSO control. Twenty-five microliters of media containing 2500 cells for LentiX-oeWEE1-ePL was dispensed per well. Assay plates were incubated at 37° C. with 5% CO2 for four hours (WEE1) After incubation, 25 μL of the InCELL Hunter™ Detection Reagent Working Solution (DiscoverX, Fremont, CA) was added to each well and incubated at room temperature for 30 minutes protected from light. After 30 minutes, luminescence was read on a PHERAstar luminometer (Cary, NC).
To determine the half-maximal effective concentration (EC50) values for WEE1-ePL degradation, a four parameter logistic model was used: (Sigmoidal Dose-Response Model) (FIT=(A+((B−A)/1+((C/x)^D)))) where C is the inflection point (EC50), D is the Hill slope, and A and B are the low and high limits of the fit respectively). The lower limit of the fit (value A) is referred to as Ymin. […] The maximum limit constraint, Ymax, is similarly derived using DMSO control. The curves were processed and evaluated using Activity Base (IDBS, Alameda, CA) or using Dotmatics (Boston, MA).

T1 sequence (P30291 whole entry): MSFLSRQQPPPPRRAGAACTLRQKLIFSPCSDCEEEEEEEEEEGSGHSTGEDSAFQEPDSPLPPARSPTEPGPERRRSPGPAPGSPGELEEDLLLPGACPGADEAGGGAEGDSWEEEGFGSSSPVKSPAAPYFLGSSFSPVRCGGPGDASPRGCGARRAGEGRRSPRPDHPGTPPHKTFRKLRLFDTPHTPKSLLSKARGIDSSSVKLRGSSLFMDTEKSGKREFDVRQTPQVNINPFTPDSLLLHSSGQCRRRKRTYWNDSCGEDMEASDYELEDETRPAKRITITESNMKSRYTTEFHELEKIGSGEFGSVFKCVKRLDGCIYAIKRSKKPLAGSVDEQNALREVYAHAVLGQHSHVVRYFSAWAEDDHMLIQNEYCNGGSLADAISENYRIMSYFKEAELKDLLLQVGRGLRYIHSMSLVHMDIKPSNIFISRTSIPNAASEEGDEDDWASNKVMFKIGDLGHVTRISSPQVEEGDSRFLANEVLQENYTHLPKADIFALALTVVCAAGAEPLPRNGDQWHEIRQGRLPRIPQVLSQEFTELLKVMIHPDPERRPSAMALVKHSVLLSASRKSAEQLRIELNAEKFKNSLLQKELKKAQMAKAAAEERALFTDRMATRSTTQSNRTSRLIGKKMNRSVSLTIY
T1 sequence (Q96SW2 whole entry): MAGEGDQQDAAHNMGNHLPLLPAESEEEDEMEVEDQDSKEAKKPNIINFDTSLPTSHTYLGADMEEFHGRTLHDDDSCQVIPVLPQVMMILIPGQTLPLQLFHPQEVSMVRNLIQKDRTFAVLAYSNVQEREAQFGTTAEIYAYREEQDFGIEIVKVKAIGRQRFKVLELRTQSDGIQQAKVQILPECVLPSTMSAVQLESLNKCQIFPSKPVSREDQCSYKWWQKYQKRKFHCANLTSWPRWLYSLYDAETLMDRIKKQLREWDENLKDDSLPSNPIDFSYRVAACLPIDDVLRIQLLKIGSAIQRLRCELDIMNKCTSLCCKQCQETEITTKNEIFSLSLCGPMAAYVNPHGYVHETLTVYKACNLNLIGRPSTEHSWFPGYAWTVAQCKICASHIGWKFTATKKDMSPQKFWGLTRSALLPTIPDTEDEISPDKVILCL
T1 sequence (Q16531 whole entry partner): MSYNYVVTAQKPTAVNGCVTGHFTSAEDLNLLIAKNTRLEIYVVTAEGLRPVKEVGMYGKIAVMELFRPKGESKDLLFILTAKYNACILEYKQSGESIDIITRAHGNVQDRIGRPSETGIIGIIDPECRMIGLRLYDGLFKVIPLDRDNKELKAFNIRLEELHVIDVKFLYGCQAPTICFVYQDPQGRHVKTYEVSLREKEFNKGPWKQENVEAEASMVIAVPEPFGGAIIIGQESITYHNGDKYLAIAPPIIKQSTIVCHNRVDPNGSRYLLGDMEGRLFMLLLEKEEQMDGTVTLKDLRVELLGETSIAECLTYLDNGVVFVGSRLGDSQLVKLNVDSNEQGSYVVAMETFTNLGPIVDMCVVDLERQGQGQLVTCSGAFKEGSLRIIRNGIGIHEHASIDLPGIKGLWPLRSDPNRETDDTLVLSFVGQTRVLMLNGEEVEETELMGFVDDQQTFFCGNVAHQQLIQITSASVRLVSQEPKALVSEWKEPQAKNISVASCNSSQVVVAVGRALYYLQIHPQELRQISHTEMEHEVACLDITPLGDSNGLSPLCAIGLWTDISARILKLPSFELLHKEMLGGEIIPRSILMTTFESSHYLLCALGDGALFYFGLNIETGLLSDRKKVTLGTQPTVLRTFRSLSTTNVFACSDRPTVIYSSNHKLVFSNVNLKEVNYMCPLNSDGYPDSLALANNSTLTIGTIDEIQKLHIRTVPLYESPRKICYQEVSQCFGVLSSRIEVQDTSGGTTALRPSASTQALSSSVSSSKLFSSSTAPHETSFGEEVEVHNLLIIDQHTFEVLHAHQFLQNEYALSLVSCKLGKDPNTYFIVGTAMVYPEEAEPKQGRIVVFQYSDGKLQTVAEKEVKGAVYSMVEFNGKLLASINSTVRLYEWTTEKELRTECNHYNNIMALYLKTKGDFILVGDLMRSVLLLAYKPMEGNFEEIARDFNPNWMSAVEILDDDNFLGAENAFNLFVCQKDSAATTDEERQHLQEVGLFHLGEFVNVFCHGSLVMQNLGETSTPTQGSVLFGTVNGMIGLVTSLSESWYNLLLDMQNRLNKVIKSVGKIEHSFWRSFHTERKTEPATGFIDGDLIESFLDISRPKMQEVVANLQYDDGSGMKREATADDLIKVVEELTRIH

SMILES	293T-LentiX WEE1-ePL Degradation 4 hr YMin (%)	DC50
Cc1cc([C@@H]2CN(Cc3cc(F)c4nc(C5CCOCC5)ccc4c3)C[C@H]2Oc2ccc3c(c2)CN([C@H]2CCC(=O)NC2=O)C3=O)ccn1 (relative stereo) [Example 126, (3S)-3-(5-{[(3S*,4R*)-1-{[8-fluoro-2-(oxan-4-yl)quinolin-6-yl]methyl}-4-(2-methylpyridin-4-yl)pyrrolidin-3-yl]oxy}-1-oxo-2,3-dihydro-1H-isoindol-2-yl)piperidine-2,6-dione]	90.0%	–
COC[C@@H]1CN(Cc2cc3ccc(N4CCN(C(C)=O)CC4)cc3c(F)n2)C[C@H]1Oc1ccc2c(c1)CN([C@H]1CCC(=O)NC1=O)C2=O [Example 124, (3S)-3-(5-{[(3S,4S)-1-{[7-(4-acetylpiperazin-1-yl)-1-fluoroisoquinolin-3-yl]methyl}-4-(methoxymethyl)pyrrolidin-3-yl]oxy}-1-oxo-2,3-dihydro-1H-isoindol-2-yl)piperidine-2,6-dione]	25.4%	–
COC[C@@H]1CN(Cc2ccc3nc(N4CCN(C(C)=O)C5(COC5)C4)ncc3c2)C[C@H]1Oc1ccc2c(c1)CN([C@H]1CCC(=O)NC1=O)C2=O [Example 95, (3S)-3-(5-{[(3S,4S)-1-[(2-{5-acetyl-2-oxa-5,8-diazaspiro[3.5]nonan-8-yl}quinazolin-6-yl)methyl]-4-(methoxymethyl)pyrrolidin-3-yl]oxy}-1-oxo-2,3-dihydro-1H-isoindol-2-yl)piperidine-2,6-dione]	20.9%	2 nM
O=C1CCC(N2Cc3cc(O[C@@H]4CN(Cc5cc(F)c6nc(C7CCOCC7)ccc6c5)C[C@H]4OC4COC4)ccc3C2=O)C(=O)N1 (relative stereo) [Example 133, rel-3-(5-(((3R,4R)-1-((8-fluoro-2-(tetrahydro-2H-pyran-4-yl)quinolin-6-yl)methyl)-4-(oxetan-3-yloxy)pyrrolidin-3-yl)oxy)-1-oxoisoindolin-2-yl)piperidine-2,6-dione]	58.0%	70 nM
O=C1CCC(N2Cc3cc(O[C@H]4CN(Cc5cc(F)c6nc(C7CCOCC7)ccc6c5)C[C@@H]4OC4COC4)ccc3C2=O)C(=O)N1 (relative stereo) [Example 152, rel-3-(5-(((3S,4S)-1-((8-fluoro-2-(tetrahydro-2H-pyran-4-yl)quinolin-6-yl)methyl)-4-(oxetan-3-yloxy)pyrrolidin-3-yl)oxy)-1-oxoisoindolin-2-yl)piperidine-2,6-dione]	82.2%	–
COC[C@@H]1CN(Cc2ccc3cc(N4CCOCC4)cnc3c2F)C[C@H]1Oc1ccc2c(c1)CN([C@H]1CCC(=O)NC1=O)C2=O [Example 101, (3S)-3-(5-{[(3S,4S)-1-{[8-fluoro-3-(morpholin-4-yl)quinolin-7-yl]methyl}-4-(methoxymethyl)pyrrolidin-3-yl]oxy}-1-oxo-2,3-dihydro-1H-isoindol-2-yl)piperidine-2,6-dione]	33.0%	3 nM
CC(C)(C)C[C@@H]1CN(Cc2cc(F)c3nc(C4CCOCC4)ccc3c2)C[C@H]1Oc1ccc2c(c1)CN([C@H]1CCC(=O)NC1=O)C2=O (relative stereo) [Example 131, (3S)-3-(5-{[(3S*,4R*)-4-(2,2-dimethylpropyl)-1-{[8-fluoro-2-(oxan-4-yl)quinolin-6-yl]methyl}pyrrolidin-3-yl]oxy}-1-oxo-2,3-dihydro-1H-isoindol-2-yl)piperidine-2,6-dione]	100.0%	–
O=C1CC[C@H](N2Cc3cc(O[C@@H]4CN(Cc5cc(F)c6nc(C7CCOCC7)ccc6c5)C[C@H]4OCC4CC4)ccc3C2=O)C(=O)N1 [Example 125, (3S)-3-(5-{[(3R,4R)-4-(cyclopropyl-methoxy)-1-{[8-fluoro-2-(oxan-4-yl)quinolin-6-yl]methyl}pyrrolidin-3-yl]oxy}-1-oxo-2,3-dihydro-1H-isoindol-2-yl)piperidine-2,6-dione]	29.2%	4 nM
